14 compounds from patent US12371434B2, “MLL1 inhibitors and anti-cancer agents” (NOVARTIS AG, priority 2020, dated 2025) can be followed below.

The subject of assay [1] is H3K4me3 in MV4-11 cells. As to the kind of experiment: MV4-11 H3K4Me3 cellular ELISA assay. In kind it is cell-based. The note with it: Homo sapiens, 48 hours, H3K4me3 signal normalized to total H3. As to the method:
MV4-11H3K4Me3 Cellular ELISA Assay
MV4-11 (ATCC® CRL-9591™) was cultured with RPMI1640 medium (Thermo Fisher Scientific, cat #11875) supplemented with 10% FBS (Thermo Fisher Scientific, cat #10099141) and 50 U/ml Penicillin-Streptomycin (Thermo Fisher Scientific, cat #10378016) in humidified incubator at 37° C., 5% CO2.
200 nL compounds dissolved in DMSO were serially diluted at 1:3 ratio for 12 points starting from 10 mM and dispensed into each wells of cell culture plates (PDL-coated ViewPlate-384 Black, FTC, PerkinElmer, #6007710). 3,750 MV4-11 cells in 40 μL culture medium were seeded into each well and treated with desired concentration for 48 hours. After treatment, wash cells with cold phosphate based buffer (PBS, pH 7.4) and aspirate the remaining PBS buffer. Crude histone lysate was extracted by 40 μL 0.5M HCl for 1 hour in 4° C. following neutralization by adding 32 μL neutralization buffer (0.5M Sodium phosphate dibasic, pH˜12.5, 1.25 mM Dithiothreitol, Promega #V3151, Protease Inhibitor Cocktail, Sigma #8340) for each well. 5 μL and 20 μL of histone lysate was loaded to ELISA plate (384 Well Plates, PE HB, White, 6005620) for detection of total H3 and H3K4me3, respectively. Shake the plates gently in 4° C. for overnight. After histone binding, plates were washed with 80 μL PBS/T (PBS with 0.05% Tween-20) and blocked with 50 μL 3% BSA diluted in PBS/T per well for 1 hour. Incubate wells with primary antibody for 1 hour at room temperature using anti-H3K4me3 (CST #9727) and anti-total H3 (CST #9715) diluted 1:2000 in 3% BSA. Plates were then washed with PBS/T for 3 times and incubated with horseradish peroxidase (HRP) conjugated secondary antibody (CST #7074, 1:5000) for 1 hour at room temperature. The abundance of H3K4me3 and total H3 were measured by ECL substrates chemiluminesce (Pierce, #34080) on a plate reader (PerkinElmer EnVison 2104 Mutilable Reader). Percentage inhibition was calculated against DMSO control after normalization of H3K4me3 signal to H3 signal for individual samples. The data were then fit to a dose response curve using GraphPad Prism for IC50 calculation.
For orientation: ELISA stands for enzyme-linked immunosorbent assay.

For assay [2], the system named is MV4-11 cells. As to the kind of experiment: MV4-11 6-day cell growth CTG (CellTiter-Glo) assay. In kind it is cell-based. The following applies: Homo sapiens, 144 h, 6 days. On the procedure:
MV4-11 6-Day Cell Growth CTG (CellTiter-Glo) Assay
Acute myeloid leukemia cell MV4-11 (ATCC® CRL-9591™) was cultured with RPMI 1640 medium (Thermo Fisher Scientific, cat #11875) supplemented with 10% FBS (Thermo Fisher Scientific, cat #10099141) in humidified incubator at 37° C., 5% CO2. To assess the effect of MLL1 inhibition on cell growth, the compound of the present invention was dissolved in DMSO and serially diluted at 1:3 for 12 points starting from 10 mM then 200 nL for the replicate of each dose per well was dispensed to Viewplate-384 Black (Perkin Elmer). Exponentially growing MV4-11 cells were seeded at the density of 300 cells per well in 40 μL to the plate, so the final compound working concentration starts from 50 μM. After 6 days, 40 μL CellTiter-Glo (Promega, cat #G7573) was added into the cell culture well and luminescence was read with Envision (Perkin Elmer) to determine the viable cells. The percentage inhibition was calculated against the samples treated with DMSO only and the data were used for dose response curve fitting in GraphPad Prism to get the IC50 of representative compound of present invention, which reflects the inhibition of MLL1 activity.

For assay [3], the target named is wild type MLL1 four-member complex (MLL1-4C) (Homo sapiens, UniProt Q03164). The experiment in a line: MLL1 LC-MS assay. The note with it: 30 nM MLL1-4C, 2.5 μM SAM, 10 μM H3K4me0; SAH production by LC-MS/MS; read-out: MLL1 LCMS. In kind it is biochemical. As to the method: The compounds of the present disclosure were serially and separately diluted 3-fold in DMSO to obtain a total of eight or twelve concentrations. Then the test compounds at each concentration (120 nL of each) were transferred by Mosquito into white Proxiplate plus 384-well microplate (PerkinElmer). Solutions (6 μL) of 60 nM wild type MLL1 four-member complex (MLL1-4C) and 5 μM SAM in the reaction buffer (20 mM Tris-HCl, pH8.0, 0.01% Tween 20, 1 mM DTT, 10 mM MgCl2, 0.01% BSA) were added to the wells that were then incubated with the test compound for 20 min. A 6 μL solution of 20 μM of the peptide substrate H3K4me0 (histone H3[1-21]-Biotin) in the reaction buffer was added to initiate each reaction. The final components in the reaction solution include 30 nM MLL1-4C, 2.5 μM SAM, and 10 μM H3K4me0 with varying concentration of the compounds. A positive control consisted of 30 nM MLL1-4C, 2.5 μM SAM, and 10 μM substrate in the absence of the test compound, and a negative control consisted of 2.5 μM SAM, and 10 μM substrate only. Each reaction was incubated at rt for 120 min, then stopped by addition of 3 μL per of quench solution (2.5% TFA with 320 nM d4-SAH). The reaction mixture was centrifuged (Eppendorf centrifuge 5810, Rotor A-4-62) for 2 min at 2000 rmp. The SAH production from the enzymatic assays were monitored by LC-MS/MS on an API 4000 triple quadrupole mass spec with TurboIon Spray (Applied Biosystem) coupled with Prominenece UFLC(Shimazu). The level of SAH production were then normalized based on the values coming from the positive and negative controls to give percent enzyme activities. The data were then fit to a dose response equation using the program Helios (Novartis) to get the IC50 values of the test compounds.

Assay [4] deals with wild type MLL1 five-member complex (MLL1-5C) (Homo sapiens, UniProt Q03164). As to the kind of experiment: MLL1 Flashplate assay. In kind it is biochemical. The following applies: 2.5 nM MLL1-5C, 0.5 μM 3H-SAM, 1 μM H3K4me0; read-out: MLL1 flash plate. On the procedure: MLL1 Flashplate Assay To assess the compound potency in MLL1 Flashplate assay, compounds were serially diluted 3-fold in DMSO to obtain a total of twelve concentrations. Then the test compounds at each concentration (250 nL of each) were transferred by Mosquito into Corning #3675 384-well plate. Solutions (15 μL) of 4.2 nM wild type MLL1 five-member complex (MLL1-5C) in the assay buffer (20 mM Tris-HCl, pH8.0, 0.01% Tween 20, 1 mM DTT, 0.01% BSA) were added to the wells. A 10 μL solution of 2.5 μM of the peptide substrate H3K4me0 (histone H3[1-21]-Biotin) and 1.25 μM ^3H-SAM in the reaction buffer was then added to initiate each reaction. The final components in the reaction solution include 2.5 nM MLL1-5C, 0.5 μM ^3H-SAM, and 1 μM H3K4me0 with varying concentration of the compounds. A positive control consisted of 2.5 nM MLL1-5C, 0.5 μM ^3H-SAM, and 1 μM substrate in the absence of the test compound, and a negative control consisted of 0.5 μM ^3H-SAM, and 1 μM substrate only. Each reaction was incubated at rt for 90 min, then stopped by addition of 5 μL per of quench solution (0.5 mM SAM in assay buffer). 25 μL of each reaction solution was transferred to FlashPlate streptavidin 384-well microplate (PerkinElmer). After at least 1 h incubation at rt, the wells were washed three times with 0.1% Tween-20 in dH2O using the BioTek plate washer. The plates were then read in MicroBeta (PerkinElmer). The radioactive readouts were then normalized based on the values coming from the positive and negative controls to give percent enzyme activities. The data were then fit to a dose response equation using the program Helios to get the IC50 values of the test compounds.

As for `COC[C@H](N)COc1ccc2ccccc2c1Cn1cnc2c(N)ncnc21` [Example 19, (S)-9-((2-(2-amino-3-methoxypropoxy)naphthalen-1-yl)methyl)-9H-purin-6-amine], the IC50 was 1900 to 3000 nM in assay [1], less than 2000 nM in assay [2] and 50 to 100 nM in assay [3].

On to `COc1nc(N)c2ncn(Cc3c(Cl)cc(Cl)cc3OCCC[C@@H](N)C(=O)O)c2n1` [Example 27, (R)-2-amino-5-(2-((6-amino-2-methoxy-9H-purin-9-yl)methyl)-3,5-dichlorophenoxy)pentanoic acid], for which the IC50 in assay [2] was greater than 3000 nM; in assay [3] it was 50 to 100 nM.

In the case of `CCOC(=O)[C@H](N)CCC(C)Oc1ccc(Cl)c(Cl)c1Cn1cnc2c(N)ncnc21` (stereo partly drawn) [Example 30, Ethyl (2R)-2-amino-5-(2-((6-amino-9H-purin-9-yl)methyl)-3,4-dichlorophenoxy)hexanoate], the IC50 in assay [1] was 1900 to 3000 nM; in assay [2], less than 2000 nM; in assay [3] it was 50 to 100 nM.

Regarding `COC(=O)C(N)CCCOc1cc(Cl)cc(Cl)c1Cn1cnc2c(N)ncc(Cl)c21` (stereo not shown) [Example 31, Methyl 2-amino-5-(2-((4-amino-7-chloro-1H-imidazo[4,5-c]pyridin-1-yl)methyl)-3,5-dichlorophenoxy)pentanoate], the IC50 in assay [2] is less than 2000 nM; in assay [3], less than 50 nM.

`CCOC(=O)[C@H](N)CCCOc1cc(Cl)cc(Cl)c1Cn1cnc2c(N)ncnc21` [Example 32, ethyl (R)-2-amino-5-(2-((6-amino-9H-purin-9-yl)methyl)-3,5-dichlorophenoxy)pentanoate]: the values for the IC50 in assay [2] and in assay [3] were less than 2000 nM and 50 to 100 nM, respectively.

For `COC(=O)[C@H](N)CCCOc1ccc(Cl)c(Cl)c1Cc1cnc2c(N)ncnn12` [Example 34, Methyl (R)-2-amino-5-(2-((4-aminoimidazo[2,1-f][1,2,4]triazin-7-yl)methyl)-3,4-dichlorophenoxy)pentanoate], the IC50 in assay [1] is less than 1900 nM; in assay [2] it was less than 2000 nM; in assay [3], 50 to 100 nM.

Take `NC(=O)[C@H](N)CCCOc1ccc(Cl)c(Cl)c1Cn1cnc2c(N)ncnc21` [Example 39, (R)-2-amino-5-(2-((6-amino-9H-purin-9-yl)methyl)-3,4-dichlorophenoxy)pentanamide]: the IC50 in assay [2] is less than 2000 nM; in assay [3] it was 50 to 100 nM.

With `COCCNC(=O)[C@H](N)CCCOc1ccc(Cl)c(Cl)c1Cn1cnc2c(N)ncnc21` [Example 41, (R)-2-amino-5-(2-((6-amino-9H-purin-9-yl)methyl)-3,4-dichlorophenoxy)-N-(2-methoxyethyl) pentanamide], the IC50 in assay [1] was less than 1900 nM; in assay [2] it was less than 2000 nM; in assay [3] it was 50 to 100 nM.

As for `Nc1ncnc2c(Cc3c(OCCC[C@@H](N)CO)ccc(Cl)c3Cl)cnn12` [Example 44, (R)-2-amino-5-(2-((4-aminopyrazolo[1,5-a][1,3,5]triazin-8-yl)methyl)-3,4-dichlorophenoxy)pentan-1-ol], the values for the IC50 in assay [4], in assay [1] and in assay [3] were greater than 100 nM, greater than 3000 nM and greater than 100 nM, respectively.

Consider `Nc1ncnc2c1ncn2Cc1c(OCCC[C@@H](N)CO)ccc(Cl)c1Cl` [Example 45, (R)-2-amino-5-(2-((6-amino-9H-purin-9-yl)methyl)-3,4-dichlorophenoxy)pentan-1-ol], for which the IC50 in assay [4] lay in the range of 60 to 100 nM; in assay [2], 2000 to 3000 nM; in assay [3] it was 50 to 100 nM.

As for `COCCOC[C@H](N)CCCOc1ccc(Cl)c(Cl)c1Cn1cnc2c(N)ncnc21` [Example 47, (R)-9-(6-((4-amino-5-(2-methoxyethoxy)pentyl)oxy)-2,3-dichlorobenzyl)-9H-purin-6-amine], the IC50 in assay [4] was greater than 100 nM; in assay [2] it was greater than 3000 nM; in assay [3], greater than 100 nM.

Regarding `Nc1ncnc2c1ncn2Cc1c(OCCC[C@@H](N)Cn2cccn2)ccc(Cl)c1Cl` [Example 49, (R)-9-(6-((4-amino-5-(1H-pyrazol-1-yl)pentyl)oxy)-2,3-dichlorobenzyl)-9H-purin-6-amine], the IC50 in assay [2] was greater than 3000 nM; in assay [3], 50 to 100 nM.

Take `Nc1ncnc2c1ncn2Cc1c(OCCC[C@@H](N)c2nnco2)ccc(Cl)c1Cl` [Example 51, (R)-9-(6-(4-amino-4-(1,3,4-oxadiazol-2-yl)butoxy)-2,3-dichlorobenzyl)-9H-purin-6-amine]: the IC50 was 60 to 100 nM in assay [4], greater than 3000 nM in assay [2] and greater than 100 nM in assay [3].

With `CSC[C@H](N)CCCOc1ccc(Cl)c(Cl)c1Cn1cnc2c(N)ncnc21` [Example 52, (R)-9-(6-((4-amino-5-(methylthio)pentyl)oxy)-2,3-dichlorobenzyl)-9H-purin-6-amine], the IC50 was greater than 100 nM in assay [4], greater than 3000 nM in assay [2] and 50 to 100 nM in assay [3].
